Blank lines part the entries; values can stand above or below the molecule they belong to.
What was measured:
human M4 receptor = target: T1, human M4 receptor (Homo sapiens, UniProt P08173); experiment: PAM activity on M4 receptor, FLIPR CALCIUM 6 assay in M4-Gα15-CHO cells with acetylcholine; format: cell-based; conditions: PAM mode with acetylcholine agonist, FLIPR calcium signal
T1 construct: expressed in transfected cells
T1 sequence (P08173 1-479): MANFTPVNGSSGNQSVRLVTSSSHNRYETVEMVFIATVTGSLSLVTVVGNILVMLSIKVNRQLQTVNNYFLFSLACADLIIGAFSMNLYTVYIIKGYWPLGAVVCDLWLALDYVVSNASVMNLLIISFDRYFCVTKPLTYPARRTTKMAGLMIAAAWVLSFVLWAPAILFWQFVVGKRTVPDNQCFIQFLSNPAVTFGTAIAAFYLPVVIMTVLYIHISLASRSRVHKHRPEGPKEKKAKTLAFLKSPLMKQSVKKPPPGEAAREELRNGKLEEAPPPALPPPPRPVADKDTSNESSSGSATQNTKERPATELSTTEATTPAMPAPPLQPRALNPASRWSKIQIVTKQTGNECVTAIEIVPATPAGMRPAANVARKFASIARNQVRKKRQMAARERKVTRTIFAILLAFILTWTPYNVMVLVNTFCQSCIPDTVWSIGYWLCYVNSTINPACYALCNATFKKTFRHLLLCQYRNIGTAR
Experimental: The activity of compounds on M4 receptor was determined by FLIPR CALCIUM 6 ASSAY KIT using a stable transfected cell line expressing human M4 receptor (M4-Gα15-CHO).
1. This study uses a CHO cell line stably expressing M4-Gα15 receptor, which expresses human CHRM4 and GNA15 genes, respectively.
2. Cell treatment: M4-Gα15-CHO cells were cultured in F-12 medium containing 10% fetal bovine serum, 0.4 mg/mL hygromycin B, and 0.8 mg/mL geneticin G418, with a culture temperature of 37° C. and a CO2 concentration of 5%. The old media was removed and the cells were washed once with phosphate buffered saline. 1 mL of trypsin solution was then added, and the mixture was incubated at 37° C. for approximately 2 minutes. After the cells were detached from the dish, approximately 5 mL of complete media pre-warmed at 37° C. was added. The cell suspension was gently pipetted to separate the aggregated cells. The cell suspension was transferred to a sterile centrifuge tube and centrifuged at 1000 rpm for 5 minutes.
1. Cell plating: M4-Gα15-CHO cells were digested and collected, then resuspended and counted, and seeded into a 384-well cell plate at a density of 1.2×10^4 cells/25 μL/well. The cell plate was then incubated in a 5% CO2 incubator at 37° C. for approximately 20 hours.
2. Preparation of loading buffer according to the instructions of FLIPR CALCIUM 6 ASSAY KIT after 24 hours: Component A was freeze-thawed to room temperature, and diluted with assay buffer and probenecid solution to obtain a loading buffer, which was kept at room temperature for later use.
3. The medium was removed from the cell plate, and 35 µL of loading buffer was quickly added to each well. After centrifugation, the cell plate was incubated at 37° C. in the dark for 120 minutes.
4. A working solution of the compound to be tested was prepared, 5 μL of which was transferred to the corresponding cell wells, and incubated at 37° C. in the dark for 30 minutes.
5. 30 nM acetylcholine agonist working solution was prepared and transferred to a 384-well loading plate at 20 μL/well.
6. The cell plate, the loading plate, and the pipette tip were placed at the corresponding positions of the FLIPR instrument. 10 μL of the agonist diluted in step 5 was added to the experimental wells using FLIPR, and data were collected at a wavelength of 515 nm to 575 nm.
7. The signal value was plotted against compound concentration. Curve fitting and EC50 calculation were performed by nonlinear regression method using GraphPad Prism software.
1. 0.5 mol/L 2-(4-(2-hydroxyethyl)piperazine)ethanesulfonic acid buffer was mixed with Hanks' balanced salt solution (pH 7.4) at a volume ratio of 1:24 to prepare an assay buffer. 10 mL of assay buffer was added to a vial of CALCIUM 6 ASSAY KIT Component A in the form of lyophilized powder, and aliquoted and stored at −20° C.
2. Probenecid powder was dissolved in 1 mol/L sodium hydroxide solution to a final concentration of […]. The assay buffer, freeze-thawed Component A, and probenecid solution were mixed at a volume ratio of 44:5:1 to prepare a loading buffer.

patients = conditions: cited from earlier work
[1] = test system: patients with schizophrenia; conditions: phase Ib; cited from earlier work
[2] = Pharmacokinetic properties in vivo in mice (iv and oral); conditions: mouse, plasma, CD-1 mice, oral 2.0 mg/kg; for bioavailability / clearance / Vd / Cmax: iv 1.0 mg/kg; for bioavailability: read-out: Bioavailability F; for clearance: read-out: Clearance CL; for Vd: read-out: Volume of distribution at steady state Vdss; for AUC(0-t): read-out: Area under the curve AUC0-last, po; for half-life: read-out: Half-life T1/2, po (converted); for Cmax: read-out: Peak concentration Cmax
Experimental: The compounds obtained in the examples of the present disclosure were evaluated for their pharmacokinetic properties in vivo in CD-1 mice.
The compounds were tested for their pharmacokinetic characteristics in rodents after intravenous injection and oral administration following standard protocols. In the experiment, the candidate compound was prepared into a clear solution or suspension with a specified vehicle, and administered to three mice via single-dose intravenous injection and oral administration, respectively. The vehicle for both intravenous injection and oral administration was 5% dimethyl sulfoxide+95% (10% polyethylene glycol (15)-hydroxystearate in water). Whole blood samples within 24 hours were collected into a commercial EDTA2K anticoagulant tube, followed by centrifugation to obtain the upper plasma sample, and acetonitrile solution containing internal standard was added to precipitate proteins. After centrifugation, the supernatant was mixed with an equal volume of water, and after another centrifugation, the supernatant was taken for injection. Plasma concentration was quantitatively analyzed using LCMS/MS analysis method, and pharmacokinetic parameters were calculated.

mice = conditions: genetic mouse model of schizophrenia; cited from earlier work

Compound: Cc1nnc(N2CCC2)c2c1CN(C(=O)CC1CN(c3ccnc(OCC(F)(F)F)c3)C1)C2 [Example 47]
EC50 (human M4 receptor): 250 nM

Compound: CCCCCCOc1nsnc1C1=CCCN(C)C1 [Xanomeline]
toxic and side effects (patients; peripheral nervous system and digestive tract): serious toxic and side effects
cognitive function of patients (patients; phase II clinical trial, Alzheimer's disease): improvement in the cognitive function

Compound: Cc1nnc(C)c2c1CN(C(=O)CC1CN(c3ccnc(C(F)(F)F)c3)C1)C2 [Example 24]
EC50 (human M4 receptor): 387 nM

Compound: Cc1cc(C)c2c(n1)CN(C(=O)CC1CN(c3ccnc(C(F)(F)F)c3)C1)C2 [CVL-231]
PANSS total score [1]: significantly reduce

Compound: Cc1c(Cc2ccc(-n3cccn3)cc2)cc2c(c1F)CN([C@H]1COCC[C@@H]1O)C2=O [TAK-071]
deficits in memory cognition, social competence, and sensory-motor gating (mice): significantly ameliorates

Compound: Cc1nnc(N2CCC2)c2c1CN(C(=O)CC1CN(c3ccnc(C(F)(F)F)c3)C1)C2 [Example 12]
EC50 (human M4 receptor): 350 nM
bioavailability [2]: 86.6%
clearance [2]: 17.1 mL/min/kg
Vd [2]: 2.3 L/kg
AUC(0-t) [2]: 1690 ng·h/mL
half-life [2]: 1.13 h
Cmax [2]: 614 ng/mL

Other lines, results leading:

EC50 (human M4 receptor): 480 nM
Compound: Cc1nnc(C)c2c1CN(C(=O)CC1CN(c3ccnc(SC(F)(F)F)c3)C1)C2 [Example 68]

EC50 (human M4 receptor): 1780 nM
Compound: Cc1nsc(N2CC(CC(=O)N3Cc4c(C)nnc(N5CCC5)c4C3)C2)n1 [Example 50]

EC50 (human M4 receptor): 580 nM
Compound: Cc1nnc(C)c2c1CN(C(=O)CC1CN(c3ccnc(O[C@@H](C)C(F)(F)F)c3)C1)C2 [Example 116]

EC50 (human M4 receptor): 900 nM
Compound: CCc1nnc(C)c2c1CN(C(=O)CC1CN(c3ccnc(OCC(F)(F)F)c3)C1)C2 [Example 110]

EC50 (human M4 receptor): 1370 nM
Compound: Cc1nnc(N2CCC2)c2c1CN(C(=O)CC1CN(c3ccnc(C(F)(F)F)c3)C1C)C2 (stereo not drawn) [Example 51]

EC50 (human M4 receptor): 1130 nM
Compound: Cc1nnc(C2CC2)c2c1CN(C(=O)CC1CN(c3ccnc(OCC(F)(F)F)c3)C1)C2 [Example 98]

EC50 (human M4 receptor): 290 nM
bioavailability [2]: 80.6%
clearance [2]: 7.65 mL/min/kg
Vd [2]: 3.72 L/kg
AUC(0-t) [2]: 3470 ng·h/mL
half-life [2]: 4.65 h
Cmax [2]: 345 ng/mL
Compound: Cc1nnc(C)c2c1CN(C(=O)CC1CN(c3ccnc(O[C@H](C)C(F)(F)F)c3)C1)C2 [Example 89]

EC50 (human M4 receptor): 390 nM
bioavailability [2]: 82.7%
clearance [2]: 3.32 mL/min/kg
Vd [2]: 1.53 L/kg
AUC(0-t) [2]: 8040 ng·h/mL
half-life [2]: 4.78 h
Cmax [2]: 827 ng/mL
Compound: Cc1nnc(C)c2c1CN(C(=O)CC1CN(c3ccnc(OCC(F)(F)F)c3)C1)C2 [Example 67]
